The record followed here is ChEMBL document CHEMBL1128364 (J Med Chem, 1995).

In assay [1] the target is T1, Oxytocin receptor (Rattus norvegicus) (UniProt P70536).
T1 sequence (whole entry): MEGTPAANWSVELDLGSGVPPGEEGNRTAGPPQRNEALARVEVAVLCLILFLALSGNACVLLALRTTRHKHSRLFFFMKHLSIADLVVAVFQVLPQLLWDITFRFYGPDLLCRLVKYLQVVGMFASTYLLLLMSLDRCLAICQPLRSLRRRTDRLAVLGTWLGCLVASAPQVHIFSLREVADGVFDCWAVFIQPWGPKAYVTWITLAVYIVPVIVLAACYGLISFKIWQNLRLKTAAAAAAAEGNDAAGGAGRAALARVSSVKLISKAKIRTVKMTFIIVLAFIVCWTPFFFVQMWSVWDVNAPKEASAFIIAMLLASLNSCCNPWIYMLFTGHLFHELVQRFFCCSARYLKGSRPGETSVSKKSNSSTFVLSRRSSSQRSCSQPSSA
Kind of assay: (§1) Compound was evaluated for the oxytocic activity with 0.5 mM Mg2+.

Assay [2] addresses Vasopressin V2 receptor (Rattus norvegicus) (UniProt Q00788). As to the kind of experiment: Antidiuretic activity at V2 receptor. The note with it: Urine.
Assay [3] addresses T1, Oxytocin receptor (Rattus norvegicus). Kind of assay: (§2) Compound was evaluated for the oxytocic activity with out Mg2+.
The target of assay [4] is T2, Oxytocin receptor (Rattus norvegicus, UniProt P70536).
T2 sequence (P70536 whole entry): T1 sequence (whole entry)
Kind of assay: In vitro activity for the anti-oxytocic activity with out Mg2+. The note with it: read-out: pA2 (converted).

Assay [5] deals with T3, Vasopressin V1a receptor (Rattus norvegicus, UniProt P30560). As to the kind of experiment: Compound was evaluated for the anti-vasopressor activity at V1a receptor.. The note with it: read-out: pA2 (converted).
Assay [6] deals with T2, Oxytocin receptor. Kind of assay: In vitro activity was determined for the anti-oxytocic activity with 0.5 mM Mg2+. The note with it: read-out: pA2 (converted).
Assay [7] has as its target T2, Oxytocin receptor. Kind of assay: In vitro activity for the anti-oxytocic activity with out Mg2+. The note with it: read-out: pA2 (converted).
The next assay concerns Rattus norvegicus. As to the kind of experiment: In vivo activity for the anti-oxytocic activity. Format: functional, organism-based. The note with it: read-out: pA2 (converted).
Assay [8] has as its target T3, Vasopressin V1a receptor. Kind of assay: Anti-vasopressor activity at V1a receptor. The note with it: read-out: pA2 (converted).
The next assay has as its target Vasopressin V2 receptor (Rattus norvegicus, UniProt Q00788). As to the kind of experiment: Antidiuretic activity at V2 receptor. The note with it: read-out: pA2 (converted). Format: tissue-based, Urine.
In assay [9] the target is T2, Oxytocin receptor. The assay is described as §1. The note with it: read-out: pA2 (converted).
For assay [10], the target named is T2, Oxytocin receptor. Described as §2. The note with it: read-out: pA2 (converted).

Where only a bound is given, the exact number is not on record here.

Vasopressin V2 receptor (Rattus norvegicus), sequence (Q00788 whole entry): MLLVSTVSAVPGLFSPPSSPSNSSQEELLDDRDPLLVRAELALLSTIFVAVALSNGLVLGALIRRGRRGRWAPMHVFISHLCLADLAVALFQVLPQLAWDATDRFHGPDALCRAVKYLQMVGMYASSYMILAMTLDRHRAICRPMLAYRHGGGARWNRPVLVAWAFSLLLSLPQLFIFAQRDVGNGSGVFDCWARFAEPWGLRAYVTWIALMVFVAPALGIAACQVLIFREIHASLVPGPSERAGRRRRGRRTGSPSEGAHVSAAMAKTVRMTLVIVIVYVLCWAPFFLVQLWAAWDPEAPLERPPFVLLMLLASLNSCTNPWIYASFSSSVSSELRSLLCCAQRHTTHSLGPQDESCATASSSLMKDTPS
T3 sequence (P30560 whole entry): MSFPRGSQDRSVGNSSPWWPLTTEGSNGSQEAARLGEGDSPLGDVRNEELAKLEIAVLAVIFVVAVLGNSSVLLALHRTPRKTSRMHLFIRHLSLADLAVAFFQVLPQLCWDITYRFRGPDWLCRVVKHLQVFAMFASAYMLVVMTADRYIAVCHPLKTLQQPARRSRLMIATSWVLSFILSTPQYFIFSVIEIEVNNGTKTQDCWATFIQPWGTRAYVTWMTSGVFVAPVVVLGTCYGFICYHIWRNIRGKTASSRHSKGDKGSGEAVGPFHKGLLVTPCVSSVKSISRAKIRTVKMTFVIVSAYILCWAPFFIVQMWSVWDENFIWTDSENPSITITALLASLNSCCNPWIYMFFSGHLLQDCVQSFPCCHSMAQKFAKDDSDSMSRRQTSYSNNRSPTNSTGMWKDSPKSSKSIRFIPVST
Vasopressin V2 receptor, sequence (Q00788 whole entry): as the sequence (Q00788 whole entry) above

On to `N=C(N)NCCC[C@H](NC(=O)[C@@H]1CCCN1C(=O)[C@@H]1CSSC[C@H](N)C(=O)N[C@@H](Cc2ccc(O)cc2)C(=O)N[C@@H](Cc2ccccc2)C(=O)N[C@@H](CCC(N)=O)C(=O)N[C@@H](CC(N)=O)C(=O)N1)C(=O)NCC(N)=O`, for which the Oxytocic activity in assay [1] came out at 25.5 U mg-1. In assay [2], this molecule came in with an Antidiuretic activity of 323 U mg-1.

Molecule `CC[C@H](C)[C@@H]1NC(=O)[C@H](Cc2ccc(O)cc2)NC(=O)[C@H](N)CSSC[C@H](C(=O)N2CCC[C@H]2C(=O)N[C@@H](CC(C)C)C(=O)NCC(N)=O)NC(=O)[C@H](CC(N)=O)NC(=O)[C@H](CCC(N)=O)NC1=O` gave an Oxytocic activity in [3] of 0.62 U mg-1. The Antidiuretic activity in assay [2] is < 0.002 U mg-1.

`CC[C@H](C)[C@@H]1NC(=O)[C@H](Cc2ccc(O)cc2)NC(=O)[C@@H](N)CSSC[C@@H](C(=O)N2CCC[C@H]2C(=O)N[C@@H](CC(C)C)C(=O)NCC(N)=O)NC(=O)[C@H](CC(N)=O)NC(=O)[C@H](CCC(N)=O)NC1=O`: the Oxytocic activity in [1] came to 486 U mg-1; in [3], 520 U mg-1. For the same molecule, the Antidiuretic activity in [2] worked out at 4 U mg-1.

For `COc1ccc(C[C@@H]2NC(=O)CC3(CCCCC3)SSC[C@@H](C(=O)N3CCC[C@H]3C(=O)N[C@@H](CCCN=C(N)N)C(=O)NCC(N)=O)NC(=O)[C@H](CC(N)=O)NC(=O)[C@H](CCC(N)=O)NC(=O)[C@H](Cc3ccccc3)NC2=O)cc1`, the Kb at Oxytocin receptor [4] was 7.41 nM; on Vasopressin V1a receptor [5] it was 2.4 nM; at Oxytocin receptor [6], 57.5 nM.

For the molecule `COc1ccc(C[C@@H]2NC(=O)CC3(CCCCC3)SSC[C@H](C(=O)N3CCC[C@H]3C(=O)N[C@@H](CCCN=C(N)N)C(=O)NCC(N)=O)NC(=O)[C@H](CC(N)=O)NC(=O)[C@H](CCC(N)=O)NC(=O)[C@H](Cc3ccccc3)NC2=O)cc1`, the Kb is 13.5 nM on Oxytocin receptor [7]; 251 nM in the assay on Rattus norvegicus; 13.5 nM on Vasopressin V1a receptor [8]; 2880 nM at Vasopressin V2 receptor; 25.1 nM on Oxytocin receptor [6].

In the case of `NC(=O)CC[C@@H]1NC(=O)[C@H](Cc2ccccc2)NC(=O)[C@H](Cc2ccc(O)cc2)NC(=O)[C@@H](N)CSSC[C@H](C(=O)N2CCC[C@H]2C(=O)N[C@@H](CCCN=C(N)N)C(=O)NCC(N)=O)NC(=O)[C@H](CC(N)=O)NC1=O`, the results for the Kb at Oxytocin receptor [9] and at Oxytocin receptor [10] were 5.75 µM and 214 nM, respectively.
